Read-outs that look alike come from different tables or passages of the source.
Key:
DPP1 in HL-60 cells = DPP1 in HL-60 cells (Homo sapiens (Human), UniProt P53634); assay: DPP1 Cell IC50 assay; type: cell-based; settings: H-Gly-Phe-AFC substrate, 60 min pre-incubation
Experimental: Media was changed every three to four days and cells were not allowed to exceed 1×10^6 cells per mL. Prior to assay, cells were collected by centrifugation at 500 rcf for 3 minutes, resuspended in PBS and counted. Cells were diluted in PBS to a concentration of 5×10^5 live cells per mL and transferred to black 96-well plates for assay, 60 μL per well. Test articles were diluted in PBS plus 0.5% DMSO, and 20 μL was added to each assay well. Compound was allowed to pre-incubate with cells with gentle shaking at 100 rpm for 60 minutes at 37° C. in a cell culture incubator maintained at 5% CO2, after which 20 μL of 500 μM H-Gly-Phe-AFC substrate (MP Biomedicals; Solon, OH) was added to each well. Plates were returned to the incubator with shaking at 100 rpm for 30 minutes, after which fluorescence was measured at Excitation/Emission 400/505 nm. % Inhibition was calculated from RFU values compared to control cell wells that received only PBS plus 0.5% DMSO. IC50 values for each compound were calculated via the XLFit (IDBS Version 5.3.1.3) Add-On to Microsoft Excel using the four parameter fit equation y=(A+((B-A)/(1+((C/x)^D)))), which appears as equation number 205 (4 Parameter Logistic Model or Sigmoidal Dose-Response Model) in XLFit.

human DPP1 enzyme = human DPP1 enzyme (Homo sapiens (Human), UniProt P53634); assay: Human DPP1 enzyme IC50 assay; type: biochemical
Outline: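 Fluorogenic readout (350/450 nm, every 5 min over 90 min, 37°C) of H-Gly-Arg-AMC cleavage at 400 μM final substrate. Compounds met activated DPP1 first for a 10-min 37°C pre-incubation in MES buffer pH 6.0 with DTT, 1% DMSO final. Four-parameter sigmoidal fit gave IC50.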

[1] = recombinant human DPP1, H-Gly-Arg-AMC substrate 400 μM

DPP1 in HL-60 cells, sequence (P53634 25-134): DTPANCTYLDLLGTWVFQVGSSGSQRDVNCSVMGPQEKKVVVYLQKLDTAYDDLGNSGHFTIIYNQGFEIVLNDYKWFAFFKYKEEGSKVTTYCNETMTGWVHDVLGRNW
DPP1 in HL-60 cells, sequence (P53634 231-394): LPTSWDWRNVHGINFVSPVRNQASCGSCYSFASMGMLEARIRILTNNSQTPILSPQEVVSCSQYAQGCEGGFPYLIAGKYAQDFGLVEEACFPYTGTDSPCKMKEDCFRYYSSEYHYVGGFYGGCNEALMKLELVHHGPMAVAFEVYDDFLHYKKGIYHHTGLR
DPP1 in HL-60 cells, sequence (P53634 395-463): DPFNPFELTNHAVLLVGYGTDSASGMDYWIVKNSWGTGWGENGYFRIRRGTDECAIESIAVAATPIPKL
human DPP1 enzyme, sequence (P53634 25-134): as the sequence (P53634 25-134) above
human DPP1 enzyme, sequence (P53634 231-394): as the sequence (P53634 231-394) above
human DPP1 enzyme, sequence (P53634 395-463): as the sequence (P53634 395-463) above

Row | Compound | IC50 (DPP1 in HL-60 cells) [nM] | IC50 (human DPP1 enzyme; [1]) [nM] | IC50 (human DPP1 enzyme) [nM]
1 | Cn1c(=O)oc2ccc(-c3ccc(C[C@@H](C#N)NC(=O)C(C)(N)C4CCC4)cc3)cc21 (stereo partly drawn) [Compound 220, 2-amino-N-[(1S)-1-cyano-2-[4-(3-methyl-2-oxo-1,3-benzoxazol-5-yl)phenyl]ethyl]-2-cyclobutylpropanamide] | 1 to 2.5 | ≤ 5 | 
2 | CN(C)C[C@H](O)C(=O)N[C@H](C#N)Cc1ccc(-c2ccc3cnn(C4CCN(C5COC5)CC4)c3c2)cc1F [Compound 287, (2S)—N-[(1S)-1-cyano-2-(2-fluoro-4-{1-[1-(oxetan-3-yl)piperidin-4-yl]indazol-6-yl}phenyl)ethyl]-3-(dimethylamino)-2-hydroxypropanamide] | ≥ 2.5 | 5 to 15 | 
3 | CN(C)C[C@H](O)C(=O)N[C@H](C#N)Cc1ccc(-c2ccc3c(c2)C2(CCN(C4COC4)CC2)OC3)cc1F [Compound 283, (2S)—N-[(1S)-1-cyano-2-{2-fluoro-4-[1′-(oxetan-3-yl)-3H-spiro[2-benzofuran-1,4′-piperidin]-6-yl]phenyl}ethyl]-3-(dimethylamino)-2-hydroxypropanamide] | ≥ 2.5 | 5 to 15 | 
4 | Cn1c(=O)oc2ccc(-c3ccc(C[C@@H](C#N)NC(=O)C(N)Cc4cocn4)cc3)cc21 (stereo partly drawn) [Compound 204, 2-amino-N-[(1S)-1-cyano-2-[4-(3-methyl-2-oxo-1,3-benzoxazol-5-yl)phenyl]ethyl]-3-(1,3-oxazol-4-yl)propanamide] | 1 to 2.5 | ≤ 5 | 
5 | Cn1c(=O)oc2ccc(-c3ccc(C[C@@H](C#N)NC(=O)C(N)Cc4cc[nH]n4)cc3)cc21 (stereo partly drawn) [Compound 221, 2-amino-N-[(1S)-1-cyano-2-[4-(3-methyl-2-oxo-1,3-benzoxazol-5-yl)phenyl]ethyl]-3-(1H-pyrazol-3-yl)propanamide] | ≥ 2.5 | ≤ 5 | 
6 | CN(C)C[C@H](O)C(=O)N[C@H](C#N)Cc1ccc(-c2ccc3c(n2)CCCN3)cc1F [Compound 276, (2S)—N-[(1S)-1-cyano-2-[2-fluoro-4-(5,6,7,8-tetrahydro-1,5-naphthyridin-2-yl)phenyl]ethyl]-3-(dimethylamino)-2-hydroxypropanamide] | ≥ 2.5 | ≥ 15 | 
7 | CO[C@@H](CN(C)C)C(=O)N[C@H](C#N)Cc1ccc(-c2ccc3oc(=O)n(C)c3c2)cc1 [Compound 105, (2S)—N-[(1S)-1-cyano-2-[4-(3-methyl-2-oxo-1,3-benzoxazol-5-yl)phenyl]ethyl]-3-(dimethylamino)-2-methoxypropanamide] | 1 to 2.5 | ≥ 15 | 
8 | CCCCOCCn1c(=O)oc2ccc(-c3ccc(C[C@@H](C#N)NC(=O)C(C)(N)C4CCC4)c(F)c3)cc21 (stereo partly drawn) [Compound 267, 2-amino-N-[(1S)-2-{4-[3-(2-butoxyethyl)-2-oxo-1,3-benzoxazol-5-yl]-2-fluorophenyl}-1-cyanoethyl]-2-cyclobutylpropanamide] | ≥ 2.5 | ≤ 5 | 
9 | Cn1c(=O)oc2ccc(-c3ccc(C[C@@H](C#N)NC(=O)C(C)(N)C4CCCC4)cc3)cc21 (stereo partly drawn) [Compound 219, 2-amino-N-[(1S)-1-cyano-2-[4-(3-methyl-2-oxo-1,3-benzoxazol-5-yl)phenyl]ethyl]-2-cyclopentylpropanamide] | 1 to 2.5 | ≤ 5 | 
10 | Cn1ccc(CC(N)C(=O)N[C@H](C#N)Cc2ccc(-c3ccc4oc(=O)n(C)c4c3)cc2)c1 (stereo partly drawn) [Compound 254, 2-amino-N-[(1S)-1-cyano-2-[4-(3-methyl-2-oxo-1,3-benzoxazol-5-yl)phenyl]ethyl]-3-(1-methylpyrrol-3-yl)propanamide] | ≥ 2.5 | 5 to 15 | 
11 | CC(C(=O)N[C@H](C#N)Cc1ccc(-c2ccc3oc(=O)n(C)c3c2)cc1)C1(N)CC1 (stereo partly drawn) [Compound 195] | ≥ 2.5 | ≥ 15 | 
12 | Cn1c(=O)oc2ccc(-c3ccc(C[C@@H](C#N)NC(=O)C(N)Cc4ccon4)cc3)cc21 (stereo partly drawn) [Compound 231, 2-amino-N-[(1S)-1-cyano-2-[4-(3-methyl-2-oxo-1,3-benzoxazol-5-yl)phenyl]ethyl]-3-(1,2-oxazol-3-yl)propanamide] | ≥ 2.5 | ≤ 5 | 
13 | C[C@@H](NCc1cccs1)C(=O)N[C@H](C#N)Cc1ccc(-c2ccc3oc(=O)n(C)c3c2)cc1 [Compound 232, (2R)—N-[(1S)-1-cyano-2-[4-(3-methyl-2-oxo-1,3-benzoxazol-5-yl)phenyl]ethyl]-2-[(thiophen-2-ylmethyl)amino]propanamide] | ≥ 2.5 | ≥ 15 | 
14 | Cn1c(=O)oc2ccc(-c3ccc(C[C@@H](C#N)NC(=O)C(N)Cc4cc[nH]c4)cc3)cc21 (stereo partly drawn) [Compound 208, 2-amino-N-[(1S)-1-cyano-2-[4-(3-methyl-2-oxo-1,3-benzoxazol-5-yl)phenyl]ethyl]-3-(1H-pyrrol-3-yl)propanamide] | ≥ 2.5 |  | < 5
15 | Cn1c(=O)oc2ccc(-c3ccc(C[C@@H](C#N)NC(=O)[C@@H](N)Cc4cn[nH]c4)cc3)cc21 [Compound 214, (2S)-2-amino-N-[(1S)-1-cyano-2-[4-(3-methyl-2-oxo-1,3-benzoxazol-5-yl)phenyl]ethyl]-3-(1H-pyrazol-4-yl)propanamide] | ≥ 2.5 | ≥ 15 | 

Further lines, with some results ahead:

Row | IC50 (DPP1 in HL-60 cells) [nM] | IC50 (human DPP1 enzyme; [1]) [nM] | Compound | IC50 (human DPP1 enzyme) [nM]
16 | 1 to 2.5 | ≤ 5 | COCCN(C)CCn1c(=O)oc2ccc(-c3ccc(C[C@@H](C#N)NC(=O)[C@](C)(N)C4CCC4)c(F)c3)cc21 [Compound 270B, (2R)-2-amino-N-[(1S)-1-cyano-2-[2-fluoro-4-(3-{2-[(2-methoxyethyl)(methyl)amino]ethyl}-2-oxo-1,3-benzoxazol-5-yl)phenyl]ethyl]-2-cyclobutylpropanamide] | 
17 | ≥ 2.5 | ≥ 15 | C[C@@H](N)[C@@H](O)C(=O)N[C@H](C#N)Cc1ccc(-c2ccc3oc(=O)n(C)c3c2)cc1 [Compound 102B] | 
18 | ≥ 2.5 | ≥ 15 | C[C@@H](O)[C@](C)(N)C(=O)N[C@H](C#N)Cc1ccc(-c2ccc3oc(=O)n(C)c3c2)cc1 [Compound 171A, (2S,3R)-2-amino-N-[(1S)-1-cyano-2-[4-(3-methyl-2-oxo-1,3-benzoxazol-5-yl)phenyl]ethyl]-3-hydroxy-2-methylbutanamide] | 
19 | ≥ 2.5 | ≥ 15 | C[C@H](O)[C@](C)(N)C(=O)N[C@H](C#N)Cc1ccc(-c2ccc3oc(=O)n(C)c3c2)cc1 [Compound 171B, (2S,3S)-2-amino-N-[(1S)-1-cyano-2-[4-(3-methyl-2-oxo-1,3-benzoxazol-5-yl)phenyl]ethyl]-3-hydroxy-2-methylbutanamide] | 
20 | ≥ 2.5 | ≥ 15 | Cn1c(=O)oc2ccc(-c3ccc(CC(C#N)NC(=O)C4(N)CCCC45CC5)c(F)c3)cc21 (stereo in doubt) [Compound 273A, (4S)-4-amino-N-[(1S)-1-cyano-2-[2-fluoro-4-(3-methyl-2-oxo-1,3-benzoxazol-5-yl)phenyl]ethyl]spiro[2.4]heptane-4-carboxamide] | 
21 | 1 to 2.5 | ≤ 5 | CCN1C(=O)Cc2ccc(-c3ccc(C[C@@H](C#N)NC(=O)[C@@](C)(N)C4CCCC4)cc3)cc21 [Compound 259A, (2S)-2-amino-N-[(1S)-1-cyano-2-[4-(1-ethyl-2-oxo-3H-indol-6-yl)phenyl]ethyl]-2-cyclopentylpropanamide] | 

— patent US20260008758A1, “LINEAR DIPEPTIDYL PEPTIDASE 1 INHIBITORS AND USES THEREOF” (Insmed Incorporated, priority 2024, published 2026)
